Measured values published in patent publication US8367713B2, “Inhibition and dispersion of bacterial biofilms with imidazole-triazole derivatives” (North Carolina State University, priority 2008, dated 2013).
Counter-ions that a name gives are not always drawn. Like-named read-outs stand apart in the source and are kept apart here.

Key:
A. baumannii biofilms = assay: Static bacterial biofilm inhibition assay (crystal violet), A. baumannii; format: cell-based, Acinetobacter baumannii; parameters: inhibition of A. baumannii biofilm development: dose or concentration left out as unconfirmed; conditions: for IC50: read-out: IC50 of biofilm inhibition, A. baumannii
Method: (§1) Each 2-AIT conjugate was initially screened at 300 μM for their ability to inhibit P. aeruginosa PAO1 and PA14 biofilms, A. baumannii biofilms and B. bronchiseptica Rb50 biofilms using a crystal violet reporter assay (G. A. O'Toole, R. Kolter, Molecular Microbiology 1998, 2, 295-304). […] This is an order of magnitude increase in activity when compared to DHS (J. J. Richards, R. W. Huigens, T. E. Ballard, A. Basso, J. Cavanagh, C. Melander, Chemical Communications 2008, 14, 1698-1700). […] 6 also dispersed pre-formed A. baumanni biofilms with an EC50 of 400 μM (FIG. 2A).
(§2) General Static Bacterial Biofilm Inhibition Assay Procedure for A. baumannii, P. aeruginosa, B. bronchiseptica and S. aureus: Biofilm inhibition assays were performed by taking an overnight culture of bacterial strain and subculturing it at an OD600 of 0.01 into the necessary growth liquid medium (LB for A. baumannii, LBNS for P. aeruginosa, Stainer Scholte medium that was supplemented with […] of 100× nutrient complex for B. bronchiseptica and TSBG for S. aureus) for the strain. The compound being tested was then added at a predetermined concentration and then aliquoted (100 μL) into the wells of a 96-well PVC microtiter plate (Wells not used for samples are filled with 100 μL of de-ionized water). Plates were then wrapped in GLAD Press n′ Seal® and incubated under stationary conditions at 37° C. After 24 hours, the media was discarded from the wells and the plates were washed thoroughly with tap water. Plates were then stained with 100 μL of 0.1% solution of crystal violet (CV) and then incubated at an ambient temperature for 30 minutes. Sample plates were then washed with tap water again and the remaining stain was solubilized with 200 μl, of 95% ethanol. Biofilm inhibition was quantitated by measuring the OD540 for each well by transferring 125 μL of the solubilized CV stain into a polystyrene microtiter dish for analysis.

MRSA = assay: Biofilm inhibition at 100 μM, MRSA; format: cell-based; conditions: Staphylococcus aureus, biofilm inhibition, 100 μM, read-out: MRSA % Inhibition
Method: Procedure to Determine the Inhibitory Effect of Test Compounds on E. faecium, MRSA, S. epidermidis, PAO1, PA14, E. Coli and MDRAB Biofilm Formation: Inhibition assays were performed by taking an overnight culture of bacterial strain and subculturing it at an OD600 of 0.01 into the necessary media (brain heart infusion for E. faecium, tryptic soy broth with a 0.5% glucose supplement (TSBG) for MRSA, Luria-Bertani (LB) media for MDRAB, Luria-Bertani media without NaCl (LBNS) for PAO1 and PA14, Luria-Bertani (LB) media for E. coli and tryptic soy broth with a 0.5% glucose supplement and a 3.0% NaCl supplement (TGN) for S. epidermidis. Stock solutions of predetermined concentrations of the test compound were then made in the necessary media. These stock solutions were aliquoted (100 μL) into the wells of the 96-well PVC microtiter plate. Sample plates were then wrapped in GLAD Press n′ Seal® followed by an incubation under stationary conditions for 24 h at 37° C. After incubation, the media was discarded from the wells and the plates were washed thoroughly with water. Plates were then stained with 100 μL of 0.1% solution of crystal violet (CV) and then incubated at ambient temperature for 30 min. Plates were washed with water again and the remaining stain was solubilized with 200 μL of 95% ethanol. A sample of 125 μL of solubilized CV stain from each well was transferred to the corresponding wells of a polystyrene microtiter dish. Biofilm inhibition was quantitated by measuring the OD540 of each well in which a negative control lane wherein no biofilm was formed served as a background and was subtracted out.
Biofilm inhibition has been tested for the following compounds, each of which was tested at a concentration of 100 μM.

[1] = tested on: A. baumannii, PAO1, PA14, Rb50, S. aureus (each bacterial strain); assay: Planktonic growth curves and colony counts, each bacterial strain; format: cell-based; conditions: each bacterial strain grown in the presence of compound
Method: The OD600 was recorded at 1, 3, 4, 5, 6 and 24 hours.
General Colony Count Procedure for A. baumannii, P. aeruginosa, B. bronchiseptica and S. aeureus: Colony counts were performed by incubating either bacterial strain in the presence and absence of the test compound at 37° C. in culture tubes until the sample with the absence of the test compound reached an OD600 of 0.40 from a starting OD600 of 0.01. This typically took three to four hours. Once the OD600 of approximately 0.40 was observed, 100 μL were taken from each culture tube from which serial dilutions were made. Then, 10 μL were removed from each serial dilution and plated out on a square gridded petri-dish followed by 16 hours of incubation at 37° C. period (48 hours for B. bronchiseptica) to grow countable colonies. Viable bacteria were quantified through employment of the track-dilution method (Jett et al., Bio Techniques. 1997, 23, 648-650).

[2] = tested on: pre-formed B. bronchiseptica Rb50 biofilms; assay: Static bacterial biofilm dispersion assay, Rb50; format: cell-based; conditions: Bordetella bronchiseptica
Method: (§3) General Static Bacterial Biofilm Dispersion Assay Procedure for A. baumannii, P. aeruginosa and S. aureus: Dispersion assays were performed by taking an overnight culture of bacterial strain and subculturing it at an OD600 of 0.01 into the necessary growth liquid medium. The resulting bacterial suspension was aliquoted (100 μL) into the wells of a 96-well PVC microtiter plate. Plates were then wrapped in GLAD Press n′ Seal® followed by an incubation under stationary conditions at an ambient temperature. After 24 hours, the media was discarded from the wells and the plates were washed thoroughly with tap water. Predetermined concentrations of the compound were then made in the same medium used to initially grow the biofilms and then aliquoted (100 μL) into the wells of the 96-well PVC microtiter plate with the established biofilms. Plates were then wrapped in GLAD Press n′ Seal® and incubated under stationary conditions at 37° C. After 24 hours, the media was discarded from the wells and the plates were washed thoroughly with tap water. Plates were then stained with 100 μL of 0.1% solution of crystal violet (CV) and then incubated at room temperature for 30 minutes. Plates were then washed with tap water again and the remaining stain was solubilized with 200 μL of 95% ethanol. Biofilm dispersion was quantitated by measuring the OD540 for each well by transferring 125 μL of the solubilized CV stain into a polystyrene microtiter dish for analysis.
General Static Bacterial Biofilm Dispersion Assay Procedure for B. bronchiseptica: This procedure is identical to the general dispersion procedure described above except that initial biofilm formation in the absence of the test compound was carried out at 37° C.

[3] = tested on: pre-formed P. aeruginosa PAO1 biofilms; assay: Static bacterial biofilm dispersion assay, PAO1; format: cell-based; conditions: Pseudomonas aeruginosa
Method: as §3

[4] = tested on: P. aeruginosa PAO1 biofilms; assay: Static bacterial biofilm inhibition assay (crystal violet), PAO1; format: cell-based; conditions: Pseudomonas aeruginosa
Method: as §1, §2

[5] = tested on: Staphylococcus aureus biofilm; assay: Static bacterial biofilm inhibition assay (crystal violet), S. aureus; format: cell-based
Method: as §2

[6] = tested on: pre-formed A. baumannii biofilms; assay: Static bacterial biofilm dispersion assay, A. baumannii; format: cell-based; conditions: Acinetobacter baumannii
Method: as §3

[7] = tested on: B. bronchiseptica Rb50 biofilms; assay: Static bacterial biofilm inhibition assay (crystal violet), Rb50; format: cell-based; conditions: Bordetella bronchiseptica, RB50BIOFILMS
Method: as §1, §2

[8] = tested on: P. aeruginosa PA14 biofilms; assay: Static bacterial biofilm inhibition assay (crystal violet), PA14; format: cell-based; conditions: Pseudomonas aeruginosa
Method: as §1, §2

[9] = tested on: pre-formed P. aeruginosa PA14 biofilms; assay: Static bacterial biofilm dispersion assay, PA14; format: cell-based; conditions: Pseudomonas aeruginosa
Method: as §3

[10] = tested on: pre-formed S. aureus biofilms; assay: Static bacterial biofilm dispersion assay, S. aureus; format: cell-based; conditions: Staphylococcus aureus
Method: as §3

C/C(=C\c1ccccc1)Cn1cc(CCCn2ccnn2)nn1 [Compound 9, 1-(2-Methyl-3-phenyl-allyl)-4-(3-[1,2,3]triazol-1-yl-propyl)-1H-[1,2,3]triazole]
inhibition at 800 µM (A. baumannii biofilms; Acinetobacter baumannii, at the highest concentration studied (800 μM), read-out: inhibition of A. baumannii biofilm development): < 30%

COc1ccc(CCNC(=O)Cn2cc(CCCc3c[nH]c(N)n3)nn2)cc1 [2-{4-[3-(2-amino-1H-imidazol-4-yl)-propyl]-[1,2,3]triazol-1-yl}-N-[2-(4-methoxy-phenyl)-ethyl]-acetamide hydrochloride]
inhibition at 100 µM (MRSA): 18.3 ± 5%

C/C(=C\c1ccccc1)Cn1cc(CCCCCc2c[nH]c(N)n2)nn1 [Compound 11, 4-{5-[1-(2-Methyl-3-phenyl-allyl)-1H-[1,2,3]triazol-4-yl]-pentyl}-1H-imidazol-2-ylamine hydrochloride]
bactericidal / microbicidal activity (colony counts and growth curves) [1]: not due to microbicidal activity
EC50 [2]: 55 µM
EC50 [3]: 11 µM
IC50 (A. baumannii biofilms; Acinetobacter baumannii): 0.98 µM
IC50 [4]: 5.6 µM
IC50 ([5]; S. aureus, value in nM): 810 nM
EC50 [6]: 120 µM
IC50 [7]: 9.5 µM
IC50 ([8]; PA14, value in nM): 530 nM
EC50 [9]: 22 µM
EC50 [10]: 2.6 µM

Nc1ncc[nH]1 [2-Aminomidazole, reference compound]
activity against A. baumannii biofilm development (A. baumannii biofilms; up to 800 μM (highest concentration tested)): devoid of activity

Nc1nc(CCCc2cn(CC(=O)NCc3ccccc3)nn2)c[nH]1 [2-{4-[3-(2-amino-1H-imidazol-4-yl)-propyl]-[1,2,3]triazol-1-yl}-N-benzyl-acetamide hydrochloride]
inhibition at 100 µM (MRSA): 58.1 ± 2%

C/C(=C\c1ccccc1)Cn1cc(Cc2c[nH]c(N)n2)nn1 [Compound 8, 4-[1-(2-Methyl-3-phenyl-allyl)-1H [1,2,3]triazol-4-ylmethyl]-1H-imidazol-2-ylamine hydrochloride]
inhibition of A. baumannii biofilm development (A. baumannii biofilms; (highest concentration tested)): < 50%

Nc1nc(CCCc2cn(CC(=O)Nc3ccccc3)nn2)c[nH]1 [2-{4-[3-(2-amino-1H-imidazol-4-yl)-propyl]-[1,2,3]triazol-1-yl}-N-phenyl-acetamide hydrochloride]
inhibition at 100 µM (MRSA): 41.9 ± 2%

Nc1nc(CCCc2cn(CC(=O)NC3CCCC3)nn2)c[nH]1 [2-{4-[3-(2-amino-1H-imidazol-4-yl)-propyl]-[1,2,3]triazol-1-yl}-N-cyclopentyl-acetamide hydrochloride]
inhibition at 100 µM (MRSA): 64 ± 4%

COc1ccc(NC(=O)Cn2cc(CCCc3c[nH]c(N)n3)nn2)cc1 [2-{4-[3-(2-amino-1H-imidazol-4-yl)-propyl]-[1,2,3]triazol-1-yl}-N-(4-methoxy-phenyl)-acetamide hydrochloride]
inhibition at 100 µM (MRSA): 41.1 ± 2%

CC(C)NC(=O)Cn1cc(CCCc2c[nH]c(N)n2)nn1 [2-{4-[3-(2-amino-1H-imidazol-4-yl)-propyl]-[1,2,3]triazol-1-yl}-N-isopropyl-acetamide hydrochloride]
inhibition at 100 µM (MRSA): 36.4 ± 3%

Nc1nc(CCCc2cn(CC(=O)N3CCCC3)nn2)c[nH]1 [2-{4-[3-(2-amino-1H-imidazol-4-yl)-propyl]-[1,2,3]triazol-1-yl}-1-pyrrolidin-1-yl-ethanone hydrochloride]
inhibition at 100 µM (MRSA): 35.4 ± 5%

Nc1nc(CCCc2cn(CC(=O)NC3CCCCC3)nn2)c[nH]1 [2-{4-[3-(2-amino-1H-imidazol-4-yl)-propyl]-[1,2,3]triazol-1-yl}-N-cyclohexyl-acetamide hydrochloride]
inhibition at 100 µM (MRSA): 40.5 ± 4%

COc1ccc(CNC(=O)Cn2cc(CCCc3c[nH]c(N)n3)nn2)cc1 [2-{4-[3-(2-amino-1H-imidazol-4-yl)-propyl]-[1,2,3]triazol-1-yl}-N-(4-methoxy-benzyl)-acetamide hydrochloride]
inhibition at 100 µM (MRSA): 71 ± 3%

CC(C)(C)NC(=O)Cn1cc(CCCc2c[nH]c(N)n2)nn1 [2-{4-[3-(2-amino-1H-imidazol-4-yl)-propyl]-[1,2,3]triazol-1-yl}-N-tert-butyl-acetamide hydrochloride]
inhibition at 100 µM (MRSA): 28.2 ± 15%

C/C(=C\c1ccccc1)Cn1cc(CCCCCCc2c[nH]c(N)n2)nn1 [Compound 12, 4-{6-[1-(2-Methyl-3-phenyl-allyl)-1H-[1,2,3]triazol-4-yl]-hexyl}-1H-imidazol-2-ylamine hydrochloride]
bactericidal / microbicidal activity (colony counts and growth curves) [1]: not due to microbicidal activity
EC50 [2]: 75 µM
EC50 [3]: 51 µM
IC50 (A. baumannii biofilms; Acinetobacter baumannii): 6.8 µM
IC50 [4]: 2.7 µM
IC50 [5]: 4600 nM
EC50 [6]: 36 µM
IC50 [7]: 70 µM
IC50 ([8]; P. aeruginosa PA14): 22000 nM
EC50 [9]: 48 µM
EC50 [10]: 37 µM

C/C(=C\c1ccccc1)Cn1cc(CCc2c[nH]c(N)n2)nn1 [Compound 7, 4-{2-[1-(2-Methyl-3-phenyl-allyl)-1H-[1,2,3]triazol-4-yl]-ethyl}-1H-imidazol-2-ylamine hydrochloride]
IC50 (A. baumannii biofilms; Acinetobacter baumannii): 220 µM

CCCCCCNC(=O)Cn1cc(CCCc2c[nH]c(N)n2)nn1 [2-{4-[3-(2-amino-1H-imidazol-4-yl)-propyl]-[1,2,3]triazol-1-yl}-N-hexyl-acetamide hydrochloride]
inhibition at 100 µM (MRSA): 83.1 ± 16%

Nc1nc(CCCc2cn(CC(=O)NCCCc3ccccc3)nn2)c[nH]1 [2-{4-[3-(2-amino-1H-imidazol-4-yl)-propyl]-[1,2,3]triazol-1-yl}-N-(3-phenyl-propyl)-acetamide hydrochloride]
inhibition at 100 µM (MRSA): 64.8 ± 2%
